Measured values reported in patent publication US6770673B1, “Therapeutic uses of arglabin in combination with other chemotherapy agents” (priority 1997, dated 2004).

Assays:
Conditions in all cases: dose 30 mg/kg
Pliss lymphosarcoma = test: Inhibition of tumor growth in implanted tumors; format: in vivo, rats
Worker's carcinosarcoma = test: Inhibition of tumor growth in implanted tumors; format: in vivo, mice and rats
Sarcoma-45 = test: Inhibition of tumor growth in implanted tumors; format: in vivo, rats
M-1 Sarcoma = test: Inhibition of tumor growth in implanted tumors; format: in vivo, mice and rats
Breast Cancer RMC-1 = test: Inhibition of tumor growth in implanted tumors; format: in vivo, mice and rats
[1] = system: Alveolar Cancer of the liver; test: Inhibition of tumor growth in implanted tumors; format: in vivo, mice and rats
[2] = system: Sarcoma-45 resistant to 5-fluorouracil; test: Inhibition of growth of resistant tumour strains; format: in vivo, rats
[3] = system: Sarcoma-45 resistant to prospidine; test: Inhibition of growth of resistant tumour strains; format: in vivo, rats
[4] = system: Sarcoma-45 resistant to rubidomycin; test: Inhibition of growth of resistant tumour strains; format: in vivo, rats
[5] = system: Pliss Lymphosarcoma resistant to rubidomycin; test: Inhibition of growth of resistant tumour strains; format: in vivo, rats
[6] = system: Pliss Lymphosarcoma resistant to leucoeffdine; test: Inhibition of growth of resistant tumour strains; tumor disappearance; format: in vivo, rats

Q: Which results are given for `C=C1C(=O)OC2C1CCC1(C)OC13CC1OC1(C)C23` (centres unmarked) [Epoxyarglabin (2), 1(10), 3(4)-diepoxy-guai-11(13)-en-6,12-olid]?
A: Inhibition of Tumour Growth, % - Pliss lymphosarcoma (Pliss lymphosarcoma): 72.1%; Inhibition of Tumour Growth, % - Worker's carcinosarcoma (Worker's carcinosarcoma): 36.4%; Inhibition of Tumour Growth, % - Sarcoma-45 (Sarcoma-45): 88.8%; Inhibition of Tumour Growth, % - M-1 Sarcoma (M-1 Sarcoma): 78.4%; Inhibition of Tumour Growth, % - Breast Cancer RMC-1 (Breast Cancer RMC-1): 59.6%; Inhibition of Tumour Growth, % - Alveolar Cancer of the liver [1]: 70.4%; Inhibition of Tumour Strains Growth, % - Resistant Forms - Sarcoma-45 to 5-fluorouracil [2]: 66.0%; Inhibition of Tumour Strains Growth, % - Resistant Forms - Sarcoma-45 to prospidine [3]: 70.4%; Inhibition of Tumour Strains Growth, % - Resistant Forms - Sarcoma-45 to rubidomycin [4]: 78.6%; Inhibition of Tumour Strains Growth, % - Resistant Forms - Pliss Lymphosarcoma to rubidomycin [5]: 78.0%; Inhibition of Tumour Strains Growth, % - Resistant Forms - Pliss Lymphosarcoma to leucoeffdine [6]: 79.8%
